Reference: US20230293517A1, “ANTAGONIST COMPOUNDS” (AdoRx Therapeutics Limited, priority 2020, published 2023)

Legend:
[1] = target: human Adenosine A3 receptor (Homo sapiens (Human), UniProt P0DMS8); experiment: Adenosine receptor TR-FRET binding assay (A3); settings: inhibition of binding of 100 nM CA200645, CHO cell membranes
Description: (§1) Biological Example 1—Adenosine Receptor Time-Resolved Fluorescence Resonance Energy Transfer (TRFRET) Binding Assay
(§2) All FRET binding experiments were conducted at room temperature in white 384-well plates, in assay binding buffer containing 1×LabMed (Cisbio, France), 100 μg/mL saponin, 1% DMSO and 0.02% pluronic acid. Binding of the fluorescently labelled Adenosine receptor antagonist XAC (CA200645, FRET acceptor) to terbium-labelled A1, A2a, A2b and A3 adenosine receptors (FRET donors) was detected by time-resolved FRET due to the close proximity of the donor and acceptor in a binding event. To investigate the ability of unlabelled test compounds to bind to Adenosine A1, A2a, A2b and A3 receptors, dose response curves were constructed that determined the ability of a range of concentrations to inhibit the binding of 30 nM CA200645 to the A2b receptor and 100 nM CA200645 to the A1, A2a, and A3 receptor.
(§3) Serial dilution (1:3 dilutions) of test compounds in neat DMSO and transfer of a 400 nL sample of test compound into the assay plate was carried out using the Mosquito (TTP Labtech, UK). The compound samples were incubated for 2 hours at room temperature with a fixed concentration of CA200645 defined for each receptor (see above) and CHO cell membranes containing the human Adenosine A1 (0.5 μg/well), A2a (0.3 μg/well), A2b (1 μg/well) or A3 (1 μg/well) receptor in 40 μL of assay buffer. Total and non-specific binding of CA200645 was determined in the absence and presence of 10 μM XAC, respectively. Following 2 hours incubation, the level of CA200645 binding was detected on a Pherastar FSX (BMG Labtech, Germany) using standard TR-FRET settings. The terbium donor was excited with three laser flashes at a wavelength of 337 nm, and donor and acceptor emission was detected at 620 nm and 665 nm wavelengths, respectively. FRET ratios were obtained by multiplying the acceptor/donor ratio value by 10,000. Specific binding was determined by subtracting the non-specific binding FRET ratio from the total binding FRET ratio. Compound IC50 curves were analysed using GraphPad Prism 7.0 (GraphPad, USA) and Ki affinity values were determined from the obtained IC50 values using the method of Cheng and Prusoff.

[2] = target: human Adenosine A2b receptor (Homo sapiens (Human), UniProt P29275); experiment: Adenosine receptor TR-FRET binding assay (A2b); settings: TR-FRET, inhibition of binding of 30 nM CA200645, CHO cell membranes
Description: as §1, §2, §3

[3] = target: human Adenosine A2a receptor (Homo sapiens (Human), UniProt P29274); experiment: Adenosine receptor TR-FRET binding assay (A2a); settings: inhibition of binding of 100 nM CA200645, CHO cell membranes
Description: as §1, §2, §3

[4] = target: human Adenosine A1 receptor (Homo sapiens (Human), UniProt P30542); experiment: Adenosine receptor TR-FRET binding assay (A1); settings: inhibition of binding of 100 nM CA200645, CHO cell membranes
Description: as §1, §2, §3

human Adenosine A1 receptor, sequence (P30542 whole entry): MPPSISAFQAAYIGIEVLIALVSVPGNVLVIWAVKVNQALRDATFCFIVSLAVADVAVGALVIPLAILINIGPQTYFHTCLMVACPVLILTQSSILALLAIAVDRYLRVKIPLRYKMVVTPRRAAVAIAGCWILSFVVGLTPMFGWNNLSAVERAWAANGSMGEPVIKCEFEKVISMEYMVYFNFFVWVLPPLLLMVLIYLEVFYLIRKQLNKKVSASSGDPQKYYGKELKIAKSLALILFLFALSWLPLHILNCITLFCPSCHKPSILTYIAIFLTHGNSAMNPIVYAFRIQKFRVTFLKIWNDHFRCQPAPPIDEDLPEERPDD
human Adenosine A3 receptor, sequence (P0DMS8 whole entry): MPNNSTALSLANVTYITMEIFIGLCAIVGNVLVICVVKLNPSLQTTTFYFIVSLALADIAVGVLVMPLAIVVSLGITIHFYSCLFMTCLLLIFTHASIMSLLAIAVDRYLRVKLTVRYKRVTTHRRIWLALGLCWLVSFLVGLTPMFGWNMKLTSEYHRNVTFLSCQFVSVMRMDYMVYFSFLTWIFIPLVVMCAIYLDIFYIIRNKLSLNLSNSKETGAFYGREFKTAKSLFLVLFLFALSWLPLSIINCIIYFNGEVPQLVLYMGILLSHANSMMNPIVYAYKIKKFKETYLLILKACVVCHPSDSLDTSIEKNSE
human Adenosine A2a receptor, sequence (P29274 whole entry): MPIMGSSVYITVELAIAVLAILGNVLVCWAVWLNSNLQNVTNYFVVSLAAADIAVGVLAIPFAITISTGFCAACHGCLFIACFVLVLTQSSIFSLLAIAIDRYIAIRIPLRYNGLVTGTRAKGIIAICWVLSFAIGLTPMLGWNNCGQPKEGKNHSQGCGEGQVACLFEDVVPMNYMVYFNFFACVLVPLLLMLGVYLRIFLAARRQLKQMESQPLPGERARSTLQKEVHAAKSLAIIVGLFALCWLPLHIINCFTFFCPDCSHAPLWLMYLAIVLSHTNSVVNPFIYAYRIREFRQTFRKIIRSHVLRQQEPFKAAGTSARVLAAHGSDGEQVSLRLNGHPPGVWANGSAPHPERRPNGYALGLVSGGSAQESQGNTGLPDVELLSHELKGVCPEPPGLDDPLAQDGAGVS
human Adenosine A2b receptor, sequence (P29275 whole entry): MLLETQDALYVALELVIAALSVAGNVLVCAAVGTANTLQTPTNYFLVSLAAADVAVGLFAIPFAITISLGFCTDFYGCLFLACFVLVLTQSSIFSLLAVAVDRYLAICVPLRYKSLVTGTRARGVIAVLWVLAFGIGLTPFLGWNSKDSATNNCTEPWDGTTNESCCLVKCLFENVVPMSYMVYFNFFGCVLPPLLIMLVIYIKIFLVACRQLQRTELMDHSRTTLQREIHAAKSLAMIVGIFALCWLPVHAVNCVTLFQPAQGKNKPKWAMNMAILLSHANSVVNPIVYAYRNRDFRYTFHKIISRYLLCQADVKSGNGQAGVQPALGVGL

How did the Ki [1] turn out when `Cc1cc(-c2sc(NC(=O)N3CCN[C@@H](C(C)(C)O)C3)nc2-c2cccc(C#N)c2)cc(Cl)n1` [Example 3.10] was run?
Its Ki is 144 nM.

And the Ki [2]?
The Ki was 12.2 nM.

And the Ki [3]?
The Ki was 8.17 nM.

And the Ki [4]?
Its Ki is 135 nM.

For `Cc1cc(-c2sc(NC(=O)N3CCC(C)(C#N)C3)nc2-c2cccc(C#N)c2)cc(C2COC2)n1` (centres unmarked) [Example 6.110, 3-Cyano-N-[4-(3-cyanophenyl)-5-[2-methyl-6-(oxetan-3-yl)-4-pyridyl]thiazol-2-yl]-3-methyl-pyrrolidine-1-carboxamide], which Ki [1] is on record?
Its Ki is 956 nM.

And the Ki [2]?
The Ki was 3.6 nM.

And the Ki [3]?
Its Ki is 0.26 nM.

And the Ki [4]?
Its Ki is 13 nM.

How did the Ki [1] turn out when `Cc1cc(-c2sc(NC(=O)N3CC4CC(C3)N4)nc2-c2cccc(C#N)c2)cc(C)n1` [Example 13.7, N-[4-(3-Cyanophenyl)-5-(2,6-dimethyl-4-pyridyl)thiazol-2-yl]-3,6-diazabicyclo[3.1.1]heptane-3-carboxamide] was run?
Its Ki is 256 nM.

What about the Ki [2] of the same compound?
Its Ki is 13.7 nM.

What about the Ki [3] of the same compound?
Its Ki is 7.46 nM.

What about the Ki [4] of the same compound?
Its Ki is 174 nM.

Which Ki [1] does the source give for `Cc1cc(-c2sc(NC(=O)N3CCN[C@@H](CO)C3)nc2-c2cccc(C#N)c2)cc(Cl)n1` [Example 5.3, (3R)-N-[5-(2-Chloro-6-methyl-4-pyridyl)-4-(3-cyanophenyl)thiazol-2-yl]-3-(hydroxymethyl)piperazine-1-carboxamide] here?
The Ki was 98 nM.

What about the Ki [2] of the same compound?
Its Ki is 2.1 nM.

What about the Ki [3] of the same compound?
Its Ki is 2.31 nM.

And the Ki [4]?
Its Ki is 90 nM.

`Cc1cc(-c2sc(NC(=O)N3CCC(N)(C#N)CC3)nc2-c2cccc(C#N)c2)cc(C)n1` [Example 7.2, 4-Amino-4-cyano-N-[4-(3-cyanophenyl)-5-(2,6-dimethyl-4-pyridyl)thiazol-2-yl]piperidine-1-carboxamide] was tested. Which Ki [1] did it give?
Its Ki is 337 nM.

And the Ki [2]?
The Ki was 1 nM.

And the Ki [3]?
The Ki was 0.2 nM.

What about the Ki [4] of the same compound?
Its Ki is 8 nM.

With `Cc1cc(-c2sc(NC(=O)N3CCNC[C@H]3CO)nc2-c2cccc(C#N)c2)cc(C)n1` [Example 13.6, (2S)-N-[4-(3-Cyanophenyl)-5-(2,6-dimethyl-4-pyridyl)thiazol-2-yl]-2-(hydroxymethyl)piperazine-1-carboxamide] as the compound, how does the Ki [1] read?
The Ki was 133 nM.

What about the Ki [2] of the same compound?
The Ki was 79.7 nM.

And the Ki [3]?
The Ki was 16.8 nM.

What about the Ki [4] of the same compound?
The Ki was 220 nM.

With `Cc1cc(-c2sc(NC(=O)N3CC[S+]([O-])CC3)nc2-c2cccc(C#N)c2)cc(C(F)F)n1` [Example 6.19, N-[4-(3-Cyanophenyl)-5-[2-(difluoromethyl)-6-methyl-4-pyridyl]thiazol-2-yl]-1-oxo-1,4-thiazinane-4-carboxamide] as the compound, how does the Ki [1] read?
Its Ki is 130 nM.

What about the Ki [2] of the same compound?
Its Ki is 1.1 nM.

What about the Ki [3] of the same compound?
The Ki was 0.61 nM.

And the Ki [4]?
The Ki was 20 nM.

For `Cc1cc(-c2sc(NC(=O)N3C[C@H]4COC[C@H]4C3)nc2-c2cccc(C#N)c2)cc(C)n1` [Example 6.49, (3aR,6aS)-N-[4-(3-Cyanophenyl)-5-(2,6-dimethyl-4-pyridyl)thiazol-2-yl]-1,3,3a,4,6,6a-hexahydrofuro[3,4-c]pyrrole-5-carboxamide], which Ki [1] is on record?
The Ki was 324 nM.

What about the Ki [2] of the same compound?
Its Ki is 2.2 nM.

What about the Ki [3] of the same compound?
The Ki was 1.27 nM.

And the Ki [4]?
The Ki was 51 nM.

What does the source list for `Cc1cc(-c2sc(NC(=O)N3CCN4C(=O)NC(=O)C4C3)nc2-c2cccc(C#N)c2)cc(C)n1` (centres unmarked) [Example 6.23, N-[4-(3-Cyanophenyl)-5-(2,6-dimethyl-4-pyridyl)thiazol-2-yl]-1,3-dioxo-5,6,8,8a-tetrahydroimidazo[1,5-a]pyrazine-7-carboxamide]?
Ki [1]: 394 nM; Ki [2]: 6.5 nM; Ki [3]: 2.99 nM; Ki [4]: 92 nM

Which results are given for `Cc1cc(-c2sc(NC(=O)N3CCC(n4cccn4)CC3)nc2-c2cccc(C#N)c2)cc(C)n1` [Example 6.21, N-[4-(3-Cyanophenyl)-5-(2,6-dimethyl-4-pyridyl)thiazol-2-yl]-4-pyrazol-1-yl-piperidine-1-carboxamide]?
Ki [1]: 96 nM; Ki [2]: 1.3 nM; Ki [3]: 0.86 nM; Ki [4]: 6 nM

What does the source list for `Cc1cc(-c2sc(NC(=O)N3CC(C(=O)O)C3)nc2-c2cccc(C#N)c2)cc(C)n1` [Example 6.70, 1-[[4-(3-Cyanophenyl)-5-(2,6-dimethyl-4-pyridyl)thiazol-2-yl]carbamoyl]azetidine-3-carboxylic acid]?
Ki [1]: 192 nM; Ki [2]: 13.1 nM; Ki [3]: 9.59 nM; Ki [4]: 163 nM

Which results are given for `Cc1cc(-c2sc(NC(=O)N3CCC(C(=O)NCCO)CC3)nc2-c2cccc(C#N)c2)cc(C)n1` [Example 6.33, N1-[4-(3-Cyanophenyl)-5-(2,6-dimethyl-4-pyridyl)thiazol-2-yl]-N4-(2-hydroxyethyl)piperidine-1,4-dicarboxamide]?
Ki [1]: 268 nM; Ki [2]: 3.6 nM; Ki [3]: 3.65 nM; Ki [4]: 51 nM

Which results are given for `CC(=O)N1C[C@H]2C[C@@H]1CN2C(=O)Nc1nc(-c2cccc(C#N)c2)c(-c2cc(C)nc(C)c2)s1` [Example 6.101, (1R,4R)-5-Acetyl-N-[4-(3-cyanophenyl)-5-(2,6-dimethyl-4-pyridyl)thiazol-2-yl]-2,5-diazabicyclo[2.2.1]heptane-2-carboxamide]?
Ki [1]: 853 nM; Ki [2]: 3 nM; Ki [3]: 1.1 nM; Ki [4]: 30 nM

Which results are given for `Cc1cc(-c2sc(NC(=O)N3CC4(CCOC4)C3)nc2-c2cccc(C#N)c2)cc(C(C)(C)O)n1` [Example 12.1, N-[4-(3-Cyanophenyl)-5-[2-(1-hydroxy-1-methyl-ethyl)-6-methyl-4-pyridyl]thiazol-2-yl]-6-oxa-2-azaspiro[3.4]octane-2-carboxamide]?
Ki [1]: 1240 nM; Ki [2]: 3.1 nM; Ki [3]: 0.2 nM; Ki [4]: 7 nM

For `Cc1cc(-c2sc(NC(=O)N3CCC4(CC3)CN(C)C(=O)N4)nc2-c2cccc(C#N)c2)cc(C)n1` [Example 6.103, N-[4-(3-Cyanophenyl)-5-(2,6-dimethyl-4-pyridyl)thiazol-2-yl]-3-methyl-2-oxo-1,3,8-triazaspiro[4.5]decane-8-carboxamide], which Ki [1] is on record?
Its Ki is 475 nM.

And the Ki [2]?
Its Ki is 1.7 nM.

And the Ki [3]?
Its Ki is 0.68 nM.

What about the Ki [4] of the same compound?
The Ki was 61 nM.

`Cc1cc(-c2sc(NC(=O)N3CCN4C(=O)CNC(=O)C4C3)nc2-c2cccc(C#N)c2)cc(C)n1` (centres unmarked) [Example 6.35, N-[4-(3-Cyanophenyl)-5-(2,6-dimethyl-4-pyridyl)thiazol-2-yl]-6,9-dioxo-1,3,4,7,8,9a-hexahydropyrazino[1,2-a]pyrazine-2-carboxamide] was tested. Which Ki [1] did it give?
The Ki was 303 nM.

And the Ki [2]?
Its Ki is 20.9 nM.

What about the Ki [3] of the same compound?
Its Ki is 9.58 nM.

And the Ki [4]?
The Ki was 243 nM.

How did the Ki [1] turn out when `Cc1cc(-c2sc(NC(=O)N3CC(=O)N[C@H](C)C3)nc2-c2cccc(C#N)c2)cc(C)n1` [Example 6.85, (3R)-N-[4-(3-Cyanophenyl)-5-(2,6-dimethyl-4-pyridyl)thiazol-2-yl]-3-methyl-5-oxo-piperazine-1-carboxamide] was run?
Its Ki is 216 nM.

And the Ki [2]?
Its Ki is 16 nM.

What about the Ki [3] of the same compound?
The Ki was 12.1 nM.

What about the Ki [4] of the same compound?
Its Ki is 44 nM.

For `Cc1cc(-c2sc(NC(=O)N3CC[S+]([O-])CC3)nc2-c2cccc(C#N)c2)cc(C(F)(F)F)n1` [Example 16.2], which Ki [1] is on record?
Its Ki is 135 nM.

And the Ki [2]?
Its Ki is 1.4 nM.

What about the Ki [3] of the same compound?
The Ki was 0.38 nM.

What about the Ki [4] of the same compound?
Its Ki is 16 nM.

How did the Ki [1] turn out when `Cc1cc(-c2sc(NC(=O)N3CC[S+]([O-])CC3)nc2-c2cccc(C#N)c2)cc(C#N)n1` [Example 16.5] was run?
Its Ki is 325 nM.

What about the Ki [2] of the same compound?
Its Ki is 19.9 nM.

What about the Ki [3] of the same compound?
Its Ki is 11.9 nM.

And the Ki [4]?
Its Ki is 87 nM.

How did the Ki [1] turn out when `Cc1cc(-c2sc(NC(=O)N3CC4CCC(C3)N4)nc2-c2cccc(C#N)c2)cc(C)n1` [Example 13.11, N-[4-(3-Cyanophenyl)-5-(2,6-dimethyl-4-pyridyl)thiazol-2-yl]-3,8-diazabicyclo[3.2.1]octane-3-carboxamide] was run?
The Ki was 226 nM.

And the Ki [2]?
Its Ki is 58.4 nM.

What about the Ki [3] of the same compound?
The Ki was 12.9 nM.

What about the Ki [4] of the same compound?
The Ki was 132 nM.

Which results are given for `Cc1cc(-c2sc(NC(=O)N3CCC4(COCCN4)C3)nc2-c2cccc(C#N)c2)cc(C)n1` (centres unmarked) [Example 13.9]?
Ki [1]: 646 nM; Ki [2]: 14.9 nM; Ki [3]: 2.01 nM; Ki [4]: 225 nM

For `Cc1cc(-c2sc(NC(=O)N3CCC4(CN(C)CCO4)C3)nc2-c2cccc(C#N)c2)cc(C(F)F)n1` (centres unmarked) [Example 6.107, N-[4-(3-Cyanophenyl)-5-[2-(difluoromethyl)-6-methyl-4-pyridyl]thiazol-2-yl]-9-methyl-6-oxa-2,9-diazaspiro[4.5]decane-2-carboxamide], which Ki [1] is on record?
The Ki was 156 nM.

And the Ki [2]?
The Ki was 2.3 nM.

What about the Ki [3] of the same compound?
Its Ki is 1.37 nM.

What about the Ki [4] of the same compound?
The Ki was 69 nM.

What does the source list for `N#Cc1cccc(-c2nc(NC(=O)N3CC4(COC4)C3)sc2-c2cc(Cl)nc(Cl)c2)c1` [Example 16.10]?
Ki [1]: 254 nM; Ki [2]: 1.7 nM; Ki [3]: 0.57 nM; Ki [4]: 43 nM
